Results from ChEMBL document CHEMBL3352178, “Antidepressant- and anxiolytic-like activity of 7-phenylpiperazinylalkyl-1,3-dimethyl-purine-2,6-dione derivatives with diversified 5-HT₁A receptor functional profile” (Bioorg Med Chem, 2015).
The source made the active and inactive calls. No cut-off for these calls is given here.

Tests used:
Mus musculus [1] = assay: Anxiolytic-like activity in mouse assessed as increase in number of punished crossings at 2.5 mg/kg, ip dosed 60 mins before test by four plate test; type: functional; conditions: route intraperitoneal
Mus musculus [2] = assay: Effect on spontaneous locomotor activity in mouse at 2.5 mg/kg, ip; type: ADME, organism-based; design: dose 2.5 mg/kg, route intraperitoneal; conditions: in vivo
Mus musculus [3] = assay: Anxiolytic-like activity in mouse assessed as increase in number of punished crossings at 2.5 mg/kg, ip dosed 60 mins before test in presence of 0.3 mg/kg, sc 5HT1A receptor antagonist WAY 100635 by four plate test; type: functional, organism-based
Mus musculus [4] = assay: Antidepressant-like activity in mouse assessed as reduction in immobility time at 1.25 to 10 mg/kg, ip dosed 60 mins before test by forced swim test; type: functional, organism-based
[5] = target: T1, 5-hydroxytryptamine receptor 1A (Rattus norvegicus, UniProt P19327); assay: Displacement of [3H]-8-OH-DPAT from 5-HT1AR in rat hippocampus; type: tissue-based
T1 sequence (P19327 whole entry): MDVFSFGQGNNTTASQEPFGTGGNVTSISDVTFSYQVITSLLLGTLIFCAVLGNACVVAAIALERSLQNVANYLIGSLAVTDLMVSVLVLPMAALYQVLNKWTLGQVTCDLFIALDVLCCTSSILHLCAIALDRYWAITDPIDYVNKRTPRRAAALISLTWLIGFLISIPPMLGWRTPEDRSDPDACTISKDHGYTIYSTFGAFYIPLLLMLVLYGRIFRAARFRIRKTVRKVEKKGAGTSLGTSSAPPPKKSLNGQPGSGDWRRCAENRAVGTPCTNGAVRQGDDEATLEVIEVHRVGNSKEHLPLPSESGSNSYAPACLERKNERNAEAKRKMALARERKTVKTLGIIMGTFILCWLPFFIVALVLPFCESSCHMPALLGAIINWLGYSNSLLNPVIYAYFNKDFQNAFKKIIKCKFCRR

[6] = target: 5-hydroxytryptamine receptor 2A (Rattus norvegicus, UniProt P14842); assay: Displacement of [3H]-ketanserin from 5-HT2AR in rat cortex
5-hydroxytryptamine receptor 2A, sequence (P14842 whole entry): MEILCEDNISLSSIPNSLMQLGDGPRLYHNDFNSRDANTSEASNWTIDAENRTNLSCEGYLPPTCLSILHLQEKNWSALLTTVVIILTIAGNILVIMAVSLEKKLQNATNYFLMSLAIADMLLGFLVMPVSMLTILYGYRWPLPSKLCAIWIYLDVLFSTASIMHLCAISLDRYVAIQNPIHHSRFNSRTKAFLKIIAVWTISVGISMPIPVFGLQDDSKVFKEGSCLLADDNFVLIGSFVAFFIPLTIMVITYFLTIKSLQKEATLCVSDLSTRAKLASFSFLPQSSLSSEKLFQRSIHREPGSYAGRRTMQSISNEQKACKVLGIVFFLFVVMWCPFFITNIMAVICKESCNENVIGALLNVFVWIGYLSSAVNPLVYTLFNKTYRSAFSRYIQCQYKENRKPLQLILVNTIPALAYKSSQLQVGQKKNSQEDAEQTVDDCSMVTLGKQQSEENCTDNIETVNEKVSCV

[7] = target: 5-hydroxytryptamine receptor 6 (Homo sapiens, UniProt P50406); assay: Displacement of [3H]LSD from human cloned 5-HT6R expressed in HEK293 cells; type: cell-based
5-hydroxytryptamine receptor 6, sequence (P50406 whole entry): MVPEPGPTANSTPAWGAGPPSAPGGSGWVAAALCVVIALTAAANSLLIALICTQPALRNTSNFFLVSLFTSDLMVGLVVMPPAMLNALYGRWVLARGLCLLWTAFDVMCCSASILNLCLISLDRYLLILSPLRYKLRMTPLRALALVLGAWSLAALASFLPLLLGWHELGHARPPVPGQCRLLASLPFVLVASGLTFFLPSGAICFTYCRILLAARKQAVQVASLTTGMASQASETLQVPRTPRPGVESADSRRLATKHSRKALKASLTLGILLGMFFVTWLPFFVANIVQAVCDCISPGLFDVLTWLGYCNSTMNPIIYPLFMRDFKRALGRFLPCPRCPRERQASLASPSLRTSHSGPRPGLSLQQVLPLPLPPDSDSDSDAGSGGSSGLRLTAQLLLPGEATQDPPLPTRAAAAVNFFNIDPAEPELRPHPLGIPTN

[8] = target: 5-hydroxytryptamine receptor 7 (Homo sapiens, UniProt P34969); assay: Displacement of [3H]]-5-CT from human cloned 5-HT7R expressed in HEK293 cells; type: cell-based
5-hydroxytryptamine receptor 7, sequence (P34969 whole entry): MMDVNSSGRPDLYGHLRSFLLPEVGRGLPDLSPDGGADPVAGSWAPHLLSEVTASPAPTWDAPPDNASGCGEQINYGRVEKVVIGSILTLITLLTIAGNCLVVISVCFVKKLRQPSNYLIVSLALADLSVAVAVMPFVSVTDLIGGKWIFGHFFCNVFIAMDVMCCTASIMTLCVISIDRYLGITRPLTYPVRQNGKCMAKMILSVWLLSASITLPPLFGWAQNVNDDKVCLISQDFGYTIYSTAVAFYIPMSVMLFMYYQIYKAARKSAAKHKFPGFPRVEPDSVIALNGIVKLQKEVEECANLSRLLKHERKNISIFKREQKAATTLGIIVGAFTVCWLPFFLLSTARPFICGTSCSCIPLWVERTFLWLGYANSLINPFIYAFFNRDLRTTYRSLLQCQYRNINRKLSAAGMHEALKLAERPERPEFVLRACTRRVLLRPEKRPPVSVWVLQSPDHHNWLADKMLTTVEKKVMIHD

D(2) dopamine receptor = D(2) dopamine receptor (Rattus norvegicus, UniProt P61169); assay: Displacement of [3H]-spiperone from dopamine D2 receptor in rat striatum
D(2) dopamine receptor, sequence (P61169 whole entry): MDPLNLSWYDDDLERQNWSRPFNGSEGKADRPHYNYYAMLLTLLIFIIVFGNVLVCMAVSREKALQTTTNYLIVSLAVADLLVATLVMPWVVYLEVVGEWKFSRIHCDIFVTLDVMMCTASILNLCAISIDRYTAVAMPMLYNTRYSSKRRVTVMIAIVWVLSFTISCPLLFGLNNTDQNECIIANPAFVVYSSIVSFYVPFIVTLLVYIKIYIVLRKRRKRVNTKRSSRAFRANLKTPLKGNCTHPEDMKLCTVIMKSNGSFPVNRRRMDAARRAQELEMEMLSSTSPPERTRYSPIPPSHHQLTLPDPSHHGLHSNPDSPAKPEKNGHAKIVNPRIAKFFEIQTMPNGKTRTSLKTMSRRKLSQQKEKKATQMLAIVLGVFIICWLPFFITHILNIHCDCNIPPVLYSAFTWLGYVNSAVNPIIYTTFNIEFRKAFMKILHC

Mus musculus [9] = assay: Induction of hypothermia in mouse assessed as change in body temperature at 5 mg/kg, ip administered 30 mins before test and measured 30 mins post dose; type: functional, organism-based; design: dose 5 mg/kg
Mus musculus [10] = assay: Induction of hypothermia in mouse assessed as change in body temperature at 10 mg/kg, ip administered 30 mins before test and measured 30 mins post dose; type: functional, organism-based; design: dose 10 mg/kg
Mus musculus [11] = assay: Induction of hypothermia in mouse assessed as change in body temperature at 5 mg/kg, ip administered 30 mins before test and measured 60 mins post dose; type: functional, organism-based; design: dose 5 mg/kg
Mus musculus [12] = assay: Induction of hypothermia in mouse assessed as change in body temperature at 10 mg/kg, ip administered 30 mins before test and measured 60 mins post dose; type: functional, organism-based; design: dose 10 mg/kg
Mus musculus [13] = assay: Induction of hypothermia in mouse assessed as change in body temperature at 5 mg/kg, ip administered 30 mins before test and measured 90 mins post dose; type: functional, organism-based; design: dose 5 mg/kg
Mus musculus [14] = assay: Induction of hypothermia in mouse assessed as change in body temperature at 10 mg/kg, ip administered 30 mins before test and measured 90 mins post dose; type: functional, organism-based; design: dose 10 mg/kg
Mus musculus [15] = assay: Induction of hypothermia in mouse assessed as change in body temperature at 5 mg/kg, ip administered 30 mins before test and measured 120 mins post dose; type: functional, organism-based; design: dose 5 mg/kg
Mus musculus [16] = assay: Induction of hypothermia in mouse assessed as change in body temperature at 10 mg/kg, ip administered 30 mins before test and measured 120 mins post dose; type: functional, organism-based; design: dose 10 mg/kg
Mus musculus [17] = assay: Induction of hypothermia in mouse assessed as change in body temperature at 10 mg/kg, ip administered 30 mins before test and measured 30 mins post dose in presence of 0.3 mg/kg, sc 5HT1A receptor antagonist WAY 100635; type: functional, organism-based
Mus musculus [18] = assay: Induction of hypothermia in mouse assessed as change in body temperature at 10 mg/kg, ip administered 30 mins before test and measured 60 mins post dose in presence of 0.3 mg/kg, sc 5HT1A receptor antagonist WAY 100635; type: functional, organism-based
Rattus norvegicus [19] = assay: Induction of lower lip retraction in rat assessed as lower lip retraction scores at 5 mg/kg, ip dosed 15 mins before test; type: functional; conditions: route intraperitoneal
Rattus norvegicus [20] = assay: Induction of lower lip retraction in rat assessed as lower lip retraction scores at 10 mg/kg, ip dosed 15 mins before test; type: functional; conditions: route intraperitoneal
Rattus norvegicus [21] = assay: Inhibition of 8-OH-DPAT-induced lower lip retraction in rat assessed as lower lip retraction scores at 5 mg/kg, ip dosed 45 mins before 8-OH-DPAT; type: functional; conditions: route intraperitoneal
Rattus norvegicus [22] = assay: Induction of lower lip retraction in rat assessed as lower lip retraction scores at 10 mg/kg, ip dosed 45 mins after 0.3 mg/kg, sc 5HT1A receptor antagonist WAY 100635; type: functional
Mus musculus [23] = assay: Inhibition of (+/-)-DOI-induced head twitch response in mouse dosed intraperitoneally 60 mins before (+/-)-DOI injection; type: functional
Mus musculus [24] = assay: Anxiolytic-like activity in mouse assessed as increase in number of punished crossings at 0.312 mg/kg, ip dosed 60 mins before test by four plate test; type: functional; conditions: route intraperitoneal
Mus musculus [25] = assay: Anxiolytic-like activity in mouse assessed as increase in number of punished crossings at 0.625 mg/kg, ip dosed 60 mins before test by four plate test; type: functional; conditions: route intraperitoneal
Mus musculus [26] = assay: Effect on spontaneous locomotor activity in mouse at 0.312 mg/kg, ip; type: ADME, organism-based; design: dose 0.312 mg/kg, route intraperitoneal; conditions: in vivo
Mus musculus [27] = assay: Effect on spontaneous locomotor activity in mouse at 0.625 mg/kg, ip; type: ADME, organism-based; design: dose 0.625 mg/kg, route intraperitoneal; conditions: in vivo
Mus musculus [28] = assay: Anxiolytic-like activity in mouse assessed as increase in number of punished crossings at 0.156 mg/kg, ip dosed 60 mins before test co-administered with 0.625 mg/kg diazepam by four plate test; type: functional, organism-based
Mus musculus [29] = assay: Antidepressant-like activity in mouse assessed as reduction in immobility time at 0.156 to 5 mg/kg, ip dosed 60 mins before test by forced swim test; type: functional, organism-based
Mus musculus [30] = assay: Induction of hypothermia in mouse assessed as change in body temperature at 2.5 mg/kg, ip administered 30 mins before test and measured 30 mins post dose; type: functional, organism-based; design: dose 2.5 mg/kg
Mus musculus [31] = assay: Induction of hypothermia in mouse assessed as change in body temperature at 2.5 mg/kg, ip administered 30 mins before test and measured 60 mins post dose; type: functional, organism-based; design: dose 2.5 mg/kg
Mus musculus [32] = assay: Induction of hypothermia in mouse assessed as change in body temperature at 2.5 mg/kg, ip administered 30 mins before test and measured 90 mins post dose; type: functional, organism-based; design: dose 2.5 mg/kg
Mus musculus [33] = assay: Induction of hypothermia in mouse assessed as change in body temperature at 2.5 mg/kg, ip administered 30 mins before test and measured 120 mins post dose; type: functional, organism-based; design: dose 2.5 mg/kg
Mus musculus [34] = assay: Induction of hypothermia in mouse assessed as change in body temperature at 2.5 mg/kg, ip administered 30 mins before test and measured 30 mins post dose in presence of 0.3 mg/kg, sc 5HT1A receptor antagonist WAY 100635; type: functional, organism-based
Mus musculus [35] = assay: Induction of hypothermia in mouse assessed as change in body temperature at 2.5 mg/kg, ip administered 30 mins before test and measured 60 mins post dose in presence of 0.3 mg/kg, sc 5HT1A receptor antagonist WAY 100635; type: functional, organism-based
Rattus norvegicus [36] = assay: Induction of lower lip retraction in rat assessed as lower lip retraction scores at 1 mg/kg, ip dosed 15 mins before test; type: functional; conditions: route intraperitoneal
Rattus norvegicus [37] = assay: Inhibition of 8-OH-DPAT-induced lower lip retraction in rat assessed as lower lip retraction scores at 1 mg/kg, ip dosed 45 mins before 8-OH-DPAT; type: functional; conditions: route intraperitoneal
Rattus norvegicus [38] = assay: Inhibition of 8-OH-DPAT-induced lower lip retraction in rat assessed as lower lip retraction scores at 10 mg/kg, ip dosed 45 mins before 8-OH-DPAT; type: functional; conditions: route intraperitoneal
Mus musculus [39] = assay: Inhibition of (+/-)-DOI-induced head twitch response in mouse assessed as head twitches per 20 mins at 2.5 mg/kg, ip dosed 60 mins before (+/-)-DOI injection (reference value: 21.6 +/- 3.4/20 mins); type: functional; conditions: route intraperitoneal
Mus musculus [40] = assay: Inhibition of (+/-)-DOI-induced head twitch response in mouse assessed as head twitches per 20 mins at 5 mg/kg, ip dosed 60 mins before (+/-)-DOI injection (reference value: 21.6 +/- 3.4/20 mins); type: functional; conditions: route intraperitoneal
Mus musculus [41] = assay: Inhibition of (+/-)-DOI-induced head twitch response in mouse assessed as head twitches per 20 mins at 10 mg/kg, ip dosed 60 mins before (+/-)-DOI injection (reference value: 21.6 +/- 3.4/20 mins); type: functional; conditions: route intraperitoneal
Mus musculus [42] = assay: Inhibition of (+/-)-DOI-induced head twitch response in mouse assessed as head twitches per 20 mins at 0.625 mg/kg, ip dosed 60 mins before (+/-)-DOI injection (reference value: 21.6 +/- 3.4/20 mins); type: functional; conditions: route intraperitoneal
Mus musculus [43] = assay: Inhibition of (+/-)-DOI-induced head twitch response in mouse assessed as head twitches per 20 mins at 1.25 mg/kg, ip dosed 60 mins before (+/-)-DOI injection (reference value: 21.6 +/- 3.4/20 mins); type: functional; conditions: route intraperitoneal

## Cl.Cn1c(=O)c2c(ncn2CCCCCN2CCN(c3ccccc3)CC2)n(C)c1=O
Mus musculus [1]
  Activity: 50%
Mus musculus [2]
  Activity: Non-toxic
Mus musculus [3]
  Activity: inactive
Mus musculus [4]
  Activity: inactive
[5]
  Ki: 0.011 µM
[6]
  Ki: 0.308 µM
[7]
  Ki: 10.3 µM
[8]
  Ki: 0.346 µM
D(2) dopamine receptor
  Ki: 0.356 µM
Mus musculus [9]
  deltaT: -1.4 °C
Mus musculus [10]
  deltaT: -0.9 °C
Mus musculus [11]
  deltaT: 1.1 °C
Mus musculus [12]
  deltaT: -1.5 °C
Mus musculus [13]
  deltaT: -0.1 °C
Mus musculus [14]
  deltaT: -1.4 °C
Mus musculus [15]
  deltaT: 0.4 °C
Mus musculus [16]
  deltaT: -1.3 °C
Mus musculus [17]
  deltaT: -0.2 °C
Mus musculus [18]
  deltaT: -0.9 °C
Rattus norvegicus [19]
  Activity: 0.4
Rattus norvegicus [20]
  Activity: 2
Rattus norvegicus [21]
  Activity: 1.7
Rattus norvegicus [22]
  Activity: 0.2

## Cl.Cn1c(=O)c2c(ncn2CCCCCN2CCN(c3cccc(Cl)c3)CC2)n(C)c1=O
Mus musculus [23]
  inhibition: Dose-dependent effect
Mus musculus [23]; ip, read-out: ID50 (the source's name)
  ED50: 2.54 mg/kg
Mus musculus [24]
  Activity: 71%
Mus musculus [25]
  Activity: 57%
Mus musculus [26]
  Activity: Non-toxic
Mus musculus [27]
  Activity: Non-toxic
Mus musculus [28]
  Activity: Active
Mus musculus [29]
  Activity: inactive
[5]
  Ki: 0.005 µM
[6]
  Ki: 0.054 µM
[7]
  Ki: 1.2 µM
[8]
  Ki: 0.131 µM
D(2) dopamine receptor
  Ki: 0.04 µM
Mus musculus [30]
  deltaT: -2.1 °C
Mus musculus [9]
  deltaT: -2.2 °C
Mus musculus [31]
  deltaT: -1.8 °C
Mus musculus [11]
  deltaT: -1.4 °C
Mus musculus [32]
  deltaT: -1.5 °C
Mus musculus [13]
  deltaT: -1.1 °C
Mus musculus [33]
  deltaT: -1.3 °C
Mus musculus [15]
  deltaT: 0.3 °C
Mus musculus [34]
  deltaT: -1.8 °C
Mus musculus [35]
  deltaT: -2 °C
Rattus norvegicus [36]
  Activity: 0.2
Rattus norvegicus [19]
  Activity: 0.3
Rattus norvegicus [20]
  Activity: 0.1
Rattus norvegicus [37]
  Activity: 1.8
Rattus norvegicus [21]
  Activity: 1.1
Rattus norvegicus [38]
  Activity: 0.5
Mus musculus [39]
  Activity: 8.2
Mus musculus [40]
  Activity: 5.8
Mus musculus [41]
  Activity: 1.3
Mus musculus [42]
  Activity: 12.8
Mus musculus [43]
  Activity: 10.8
